This is an account of results in ChEMBL document CHEMBL1201862, “PubChem BioAssay data set” (2004).

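Growth conditions: 96-well plates. Treatment: test compound, 48 hours, 5 concentrations. Analysis: linear interpolation between bracketing concentrations; unreached endpoints set to highest concentration. GI50 marks 50% less growth.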 Calls of active or inactive are those of the source. No stated cut-off is given here; in the data, active = GI50 up to about 1.1 µM and inactive = higher.

Holding throughout (assay): NCI-60 cell line screen, 48 h
The subject of assay [1] is HL-60.
Assay [2] has as its system A498.
Assay [3] relates to 786-0.
In assay [4] the test system is T47D.
Assay [5] has as its system K562.
The subject of assay [6] is RPMI-8226.
For assay [7], the system named is HCT-15.
Assay [8] has as its system SK-MEL-5.
Assay [9] relates to SNB-75.
The test system of assay [10] is MDA-MB-435.
The test system of assay [11] is Hs-578T.
The subject of assay [12] is LOX IMVI.
For assay [13], the system named is OVCAR-3.
In assay [14] the test system is SK-OV-3.
The test system of assay [15] is SK-MEL-28.
Assay [16] deals with RXF 393.
In assay [17] the test system is NCI-H226.
The test system of assay [18] is HOP-92.
Assay [19] concerns A549.
The subject of assay [20] is SNB-19.

In the case of `COc1cc(/C=N/c2ccc(S(N)(=O)=O)cc2)cc(OC)c1`, the GI50 was 13.6 µM (inactive) in assay [1]; > 50 µM (inactive) in assay [2]; > 50 µM (inactive) in [3]; > 50 µM (inactive) in [4]; 42.1 µM (inactive) in assay [5]; 28 µM (inactive) in assay [6]. The GI50 in assay [7] was 29.6 µM; in assay [8] it was > 50 µM (inactive); in [9] it was 25.6 µM (inactive); in assay [10] it was 14 µM (inactive); in assay [11] it was > 50 µM (inactive); in assay [12], 46.6 µM (inactive). The GI50 in [13], in [14], in [15], in assay [16], in assay [17] and in [18] was > 50 µM (inactive) in each case. The GI50 in [19] and in assay [20] was > 50 µM (inactive) throughout.
Consider `O=c1c2cc(I)ccc2nc(Sc2ccc([N+](=O)[O-])cc2[N+](=O)[O-])n1Cc1ccccc1`, for which the GI50 is 1.83 µM (inactive) in assay [1]; 7.03 µM (inactive) in assay [2]; 0.815 µM (active) in assay [3]; 1.71 µM (inactive) in assay [4]; 1.78 µM (inactive) in assay [5]; 1.74 µM (inactive) in [6]. Besides, the GI50 is 1.61 µM in assay [7]; 3.48 µM (inactive) in [8]; 3.91 µM (inactive) in assay [9]; 1.82 µM (inactive) in assay [10]; 4.78 µM (inactive) in [11]; 1.46 µM (inactive) in [12]. The GI50 was 1.9 µM (inactive) in assay [13]; 8.13 µM (inactive) in assay [14]; 7.14 µM (inactive) in assay [15]; 2.38 µM (inactive) in assay [16]; 2.74 µM (inactive) in assay [17]; 2.33 µM (inactive) in assay [18]. For the same compound, the figures for the GI50 in [19] and in assay [20] were 15.2 µM (inactive) and 6.65 µM (inactive), respectively.
Consider `CC(=O)Nc1ccc(-c2nc3cc(Cl)ccc3o2)cc1`, for which the GI50 was 40.9 µM (inactive) in assay [1]; > 50 µM (inactive) in [2]; > 50 µM (inactive) in assay [3]; 20.4 µM (inactive) in [4]; > 50 µM (inactive) in assay [5]; > 50 µM (inactive) in assay [6]. In addition, the GI50 in assay [7] was more than 50 µM; in assay [8] it was 20.4 µM (inactive); in assay [9], 32.5 µM (inactive); in assay [10], > 50 µM (inactive); in assay [11], > 50 µM (inactive); in assay [12], > 50 µM (inactive). For the same compound, the GI50 in [13] is > 50 µM (inactive); in assay [14], > 50 µM (inactive); in assay [15], > 50 µM (inactive); in [16], > 50 µM (inactive); in assay [17] it was 24.5 µM (inactive); in assay [18], > 50 µM (inactive). Besides, the GI50 in [19] and in [20] was > 50 µM (inactive) each time.
With `O=C1NC(=O)C(C(c2ccc([N+](=O)[O-])cc2)C2C(=O)NC(=O)NC2=O)C(=O)N1`, the GI50 in assay [1], in assay [2], in [3], in assay [4], in assay [5] and in assay [6] was > 100 µM (inactive) in each case. The GI50 in assay [7] is more than 100 µM; in assay [8] it was > 100 µM (inactive); in assay [10], > 100 µM (inactive); in assay [11], > 100 µM (inactive); in assay [12], > 100 µM (inactive); in assay [13], > 100 µM (inactive). Also, the GI50 in assay [15], in [16], in assay [17], in assay [18], in [19] and in assay [20] was > 100 µM (inactive) throughout.
For the compound `COc1cc(CNc2nc3ccccc3nc2-c2cccs2)cc(OC)c1OC`, the GI50 in [1] was 14 µM (inactive); in assay [2], 18.6 µM (inactive); in assay [3] it was 25.2 µM (inactive); in assay [4] it was 7.48 µM (inactive); in assay [5] it was 17.6 µM (inactive); in assay [6], 10.5 µM (inactive). In addition, the GI50 is 21.9 µM in assay [7]; 12.5 µM (inactive) in [8]; > 100 µM (inactive) in assay [9]; 21.7 µM (inactive) in assay [10]; 12.6 µM (inactive) in assay [11]; 17.7 µM (inactive) in assay [12]. Also, the GI50 was 22.6 µM (inactive) in assay [13]; 29.8 µM (inactive) in assay [14]; 32.3 µM (inactive) in [15]; 14 µM (inactive) in assay [16]; 29.5 µM (inactive) in assay [17]; 1.26 µM (inactive) in assay [18]. For the same compound, the GI50 in assay [19] was 18.7 µM (inactive).
In the case of `NS(=O)(=O)c1nnc(NC(=O)Nc2ccc(Cl)c(Cl)c2)s1`, the GI50 in [1] was 28.8 µM (inactive); in assay [2] it was 22 µM (inactive); in assay [3], 24.3 µM (inactive); in assay [4], 19.9 µM (inactive); in assay [5], 31.3 µM (inactive); in assay [6] it was 17.5 µM (inactive). For the same compound, the GI50 in assay [7] is 21.2 µM; in assay [8], 16.7 µM (inactive); in assay [10], 20.3 µM (inactive); in assay [11], 29.2 µM (inactive); in [12], 18.2 µM (inactive); in assay [13], 24.9 µM (inactive). In addition, the GI50 in assay [14] is 20.6 µM (inactive); in assay [15] it was 17.1 µM (inactive); in assay [16], 16.7 µM (inactive); in assay [17], 23.2 µM (inactive); in [18] it was 16.3 µM (inactive); in assay [19] it was 31 µM (inactive). Moreover, the GI50 in [20] was 21 µM (inactive).
Regarding `O=C(C/C(=N/O)c1cc(-c2ccccc2)no1)c1ccccc1`, the GI50 in assay [1] is 29 µM (inactive); in assay [2] it was > 100 µM (inactive); in assay [3] it was 22.1 µM (inactive); in [4], 35.8 µM (inactive); in assay [5] it was 41.3 µM (inactive); in assay [6], > 100 µM (inactive). For the same compound, the GI50 is more than 100 µM in assay [7]; 80.9 µM (inactive) in assay [8]; > 100 µM (inactive) in [10]; 26.2 µM (inactive) in assay [11]; 36.4 µM (inactive) in [12]; 23.2 µM (inactive) in [13]. The GI50 in assay [14] was 17.1 µM (inactive); in [15] it was > 100 µM (inactive); in assay [16], 19.8 µM (inactive); in [17], 20.8 µM (inactive); in [18], 22.2 µM (inactive); in [19], 58.6 µM (inactive). The GI50 in [20] was 26.5 µM (inactive).
On to `COc1ccc(/C=C2/C(C)=NN(c3cccc(Cl)c3)/C2=N/c2nc3ccccc3s2)cc1`, for which the GI50 in [1] was 20.7 µM (inactive); in [2], 23.1 µM (inactive); in assay [3], 20.3 µM (inactive); in assay [4], 34 µM (inactive); in assay [5] it was 26.7 µM (inactive); in [6] it was 22.7 µM (inactive). Further, the GI50 in assay [7] was 17.5 µM; in assay [8], 16.6 µM (inactive); in assay [9] it was 26.8 µM (inactive); in assay [10], 33.7 µM (inactive); in [11], 24.7 µM (inactive); in assay [12], 18 µM (inactive). In addition, the GI50 in assay [13] is 20.2 µM (inactive); in assay [14], 24 µM (inactive); in assay [15], 20.6 µM (inactive); in assay [16], 12 µM (inactive); in assay [17], 22.3 µM (inactive); in assay [18], 20.9 µM (inactive).
As for `C[N+](C)(C)/N=C\c1ccc(O)c(O)c1`, the GI50 in [1], in assay [2], in assay [3], in assay [4], in assay [5] and in [6] was > 100 µM (inactive) each time. The GI50 in assay [7] is more than 100 µM; in [8], > 100 µM (inactive); in assay [10], > 100 µM (inactive); in assay [11], > 100 µM (inactive); in assay [12] it was > 100 µM (inactive); in assay [13], > 100 µM (inactive). In addition, the GI50 in assay [14] is > 100 µM (inactive); in assay [15] it was > 59.4 µM (inactive); in assay [16], > 100 µM (inactive); in assay [17] it was > 100 µM (inactive); in assay [18] it was > 100 µM (inactive); in assay [19], > 100 µM (inactive). For the same compound, the GI50 in [20] is > 100 µM (inactive).
Regarding `CN(C)Cc1cc(C(=O)/C=C/c2ccc(Br)cc2)cc(CN(C)C)c1O`, the GI50 in assay [1] was 3.4 µM (inactive); in [2] it was 14.3 µM (inactive); in [3], 5.28 µM (inactive); in [4], 15.9 µM (inactive); in [5] it was 2.43 µM (inactive); in [6], 4.74 µM (inactive). Also, the GI50 in assay [7] was 11.8 µM; in [8], 10.7 µM (inactive); in [9] it was 11.3 µM (inactive); in assay [10], 14.3 µM (inactive); in [11] it was 18.7 µM (inactive); in assay [12] it was 1.99 µM (inactive). Besides, the GI50 in assay [13] is 3.24 µM (inactive); in assay [15], 12.2 µM (inactive); in assay [16], 2.05 µM (inactive); in [17], 17.3 µM (inactive); in assay [18], 3.33 µM (inactive); in [19], 8.22 µM (inactive). Also, the GI50 in [20] was 12.8 µM (inactive).
